In experiment [1] the test system is Molm14 AML leukemia cells. In words: AMR-dTAG or AMR-ShieldTag HSPC transplanted into NSG mice with Molm14 cells, CD33 CAR-T. The experiment is classed as in vivo.
From the text: (§1) The transduced cells are also transplanted into NSG mice along with Molm14 AML leukemia cells.
as §1

The test system of experiment [2] is CD33 on hematopoietic stem cells and progenitor cells. Nature of the experiment: HSPC expressing AMR-dTAG or AMR-ShieldTag targeting CD33, in vitro. The experiment is classed as cell-based.
In experiment [3] the test system is CD19 on RAJI (CD19+) cells. In words: CD19 surface expression on transduced RAJI cells, flow cytometry with PE-conjugated FMC63 antibody (antigen masking). The experiment is classed as cell-based. An excerpt: A panel of CARs targeting CD19 were generated using antigen binding domains derived from FMC63 (SEQ ID NO: 205), hu-mROO5-1 (SEQ ID NO: 211) and CD19-MM (SEQ ID NO: 209) scFVs respectively. […] The constructs also co-expressed a puromycin resistance gene (PAC). The lentiviral vectors encoding the different CAR constructs were used to infect RAJI (CD19+) cells. The cells were selected with puromycin. Flow cytometry with PE-conjugated FMC63 antibody was used to detect the expression of CD19 on the surface of the CAR-expressing cells.
In another exemplary experiment, the experiment is repeated with lentiviral vectors encoding FMC63- or hum-mROO5-1-based cTCR, Ab-TCR, TFPαβ and TFPγδ.
RAJI cells were infected with the following lentiviral vectors encoding antigen masking receptors targeting CD19 and carrying protein degradation motifs FKBP12. […] RAJI cells were selected with puromycin and examined for CD19 expression by cell surface staining with FMC63 antibody. […] Subsequently, the cells were treated with dTAG-13 (100 nM) for 24-72 h to induce degradation of the AMR.

The subject of the next experiment is RAJI cells. Nature of the experiment: Killing of AMR-expressing RAJI cells by CD19-CAR-T cells or Blinatumomab. The format is cell-based. To be noted: exposure to dTAG-13. The procedure: T cells mediated induction of lysis of target cells was assayed by increase of luciferase activity as measured by BioTek synergy plate reader by directly injecting 0.5×CTZ assay buffer containing native coeloentrazine (Nanaolight).

In experiment [4] the target is CD19 (on RAJI cells) (UniProt P15391). Nature of the experiment: cell surface staining of control RAJI cells with FMC63 antibody, flow cytometry. On the technique in general: A flow cytometer gives signals particle by particle.
The test system of experiment [5] is NALM6 (B cell acute lymphocytic leukemia cells). Nature of the experiment: Infection of NALM6 cells by lentivirus encoding a non-FMC63 CD19 CAR. The experiment is classed as cell-based. To be noted: CAR scFV derived from an antibody other than FMC63. As for the experimental part: The experiment in the preceding example is repeated using a lentiviral vector encoding a CD19 CAR (SEQ ID NO: 11920) comprising a scFV derived from an antibody other than FMC63 as its antigen-binding domain. The CAR is cloned in the pCCLc-MNDU3-WPRE lentiviral vector (SEQ ID NO: 3) and the resulting vector is packaged using VSVG as described in the preceding example. […] In contrast, incubation with Rituximab, a CD20 antibody, had no effect.

Experiment [6] can be described thus: Patient with cytokine release syndrome and neurological complications after haploidentical stem cell transplant. The experiment is classed as in vivo, human. As for the experimental part:
A patient with myelofibroris receives haploidentical peripheral blood stem cell transplant using their child as a donor. The patient receives reduced intensity conditioning with Melphalan (100 mg/m2 on day −6), Fludarabine (25 mg/m2×4 on days −5 to −2) and total body irradiation (TBI) of 200 cGy on day −1. Following infusion of haploidentical stem cells on Day 0, the patient receives post-transplant Cyclophosphamide 50 mg/kg×2 on days+3 and +4 and intravenous hydration with normal saline at rate of 250 ml/h for 24 hours after the completion of cyclophosphamide.

Experiment [7] addresses CD19 (on RAJI cells) (UniProt P15391). Nature of the experiment: cell-based or functional assay.

The record followed here is patent publication US20220135678A1, “METHODS AND COMPOSITIONS TO IMPROVE THE SAFETY AND EFFICACY OF CELLULAR THERAPIES” (University of Southern California, priority 2019, published 2022).

UniProt P15391, sequence (P15391 20-556 limits assumed): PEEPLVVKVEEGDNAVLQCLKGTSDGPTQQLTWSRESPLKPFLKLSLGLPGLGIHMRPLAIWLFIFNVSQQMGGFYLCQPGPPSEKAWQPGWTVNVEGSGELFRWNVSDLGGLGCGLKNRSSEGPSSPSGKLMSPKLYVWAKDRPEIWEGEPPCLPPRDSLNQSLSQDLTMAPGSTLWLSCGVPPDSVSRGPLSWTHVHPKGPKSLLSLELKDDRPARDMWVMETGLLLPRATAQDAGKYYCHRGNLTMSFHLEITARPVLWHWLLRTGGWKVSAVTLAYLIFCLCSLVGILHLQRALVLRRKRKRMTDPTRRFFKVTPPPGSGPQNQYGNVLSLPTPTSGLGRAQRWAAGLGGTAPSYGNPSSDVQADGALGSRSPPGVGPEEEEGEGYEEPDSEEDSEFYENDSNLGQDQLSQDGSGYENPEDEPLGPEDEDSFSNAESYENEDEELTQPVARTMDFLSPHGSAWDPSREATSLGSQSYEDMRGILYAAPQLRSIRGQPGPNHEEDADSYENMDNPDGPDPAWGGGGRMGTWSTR

Regarding `CC[C@H](C(=O)N1CCCC[C@H]1C(=O)O[C@H](CCc1ccc(OC)c(OC)c1)c1cccc(OCCN2CCOCC2)c1)c1cc(OC)c(OC)c(OC)c1` [Shield-1], the “CD33 AMR-ShieldTag fusion protein in animals after ligand treatment is stopped” value in experiment [1] (Shield-1 treatment stopped) was “degradation of the CD33 AMR-ShieldTag fusion protein”. Besides, the “AMR fusion protein after ligand treatment is stopped, in vitro” value in experiment [2] (Shield-1 treatment stopped) is on record as “degradation of AMR fusion protein”.

`CC[C@H](C(=O)N1CCCC[C@H]1C(=O)O[C@H](CCc1ccc(OC)c(OC)c1)c1ccccc1OCC(=O)NCCCCCCOc1cccc2c1C(=O)N(C1CCC(=O)NC1=O)C2=O)c1cc(OC)c(OC)c(OC)c1` (some centres unmarked) [dTAG-13]: the “AMR-dTAG fusion protein in animals after ligand” value in experiment [1] (25 mg/kg daily) was “degradation of the AMR-dTAG fusion protein”. Also, the “induction of CD19 expression with increasing concentration” value in experiment [3] (1 pM to 100 nM) was “dose dependent induction”. Besides, in experiment [3] (100 nM for 24-72 h, FMC63-PE staining, before treatment […]), the “CD19 expression on AMR-expressing RAJI cells after ligand” value came out at 68.98%. The “killing of AMR-expressing RAJI cells by CD19-CAR-T cells or Blinatumomab upon exposure to ligand” value in the experiment on RAJI cells is reported as “sensitized”. The “AMR fusion protein after ligand treatment in vitro” value in experiment [2] (100 nM) is recorded as “degradation of AMR fusion protein”.

The molecule FMC63-PE mouse monoclonal antibody returned a % of control RAJI cells stained for CD19 by FMC63 antibody with CD19 (on RAJI cells) [4] of 99.2%.

On to Rituximab: a CD20 antibody, for which the “infection of NALM6 by the CD19 CAR (SEQ ID NO: 11920)” value in experiment [5] was “no effect”.

In the case of “Tocilizumab: administered 600 mg i.v. for cytokine release syndrome”, the blood pressure entry in experiment [6] (600 mg i.v. on day 5 after transplantation, patient with CRS after haploidentical stem cell transplant) is listed as “stabilization of blood pressure”. The “neurological / mental status” value in experiment [6] (after Tocilizumab 600 mg i.v. on day 5 after transplantation) is “continues to have neurological deterioration”.

isotype control mouse IgG (antibody): in the experiment with CD19 (on RAJI cells) [7], the % EGFP + RAJI Cells (infection with CD19 CAR lentivirus after incubation with Control IgG-PE) was 29.6%, the % EGFP + RAJI Cells (infection with CD19 CAR lentivirus after incubation with control IgG) came out at 43.3% and the % EGFP + RAJI Cells (infection with the negative control MSLN-237-HL mesothelin CAR lentivirus after incubation with Control IgG-PE) worked out at 20.4%.
